Format: physicochemical
Procedure: The L. plantarum B21 bacteriocin was purified from the CFS by a three-step protocol process consisting of concentration, n-butanol extraction and cation exchange chromatography by Fast Protein Liquid Chromatography (FPLC). All purification steps were carried out at room temperature. L. plantarum B21 was used as an inoculum 2% (v/v) into 165 mL of MRS broth and incubated at 30 °C for 24 h without shaking. The CFS was prepared as previously described. The CFS was concentrated to 70 mL through a 10 kDa polyethersulfone membrane discs (Generon, UK) using an Amicon UF cell (Model 8200, Millipore, USA). The concentrated CFS was subjected to n-butanol extraction according to Abo-Amer with a few modifications. The concentrated L. plantarum B21 CFS was extracted twice in 1:1 volume of water saturated n-butanol and centrifuged at 10,000 × g for 10 min. The n-butanol fraction containing the bacteriocin was freeze dried (FDU-8612, Operon Co. Ltd, Korea) to remove the solvent. The dried n-butanol fraction was redissolved in 20 mM sodium phosphate buffer, pH 6.0. Both the n-butanol and aqueous fractions were examined for antimicrobial activity. […] The concentration of the bacteriocin was measured after each step of protein purification using Pierce™ BCA Protein Assay Kit (Thermo Fisher Scientific, USA) according to manufacturer's instruction.

In the case of “cyclo(AAAGALGGTAAIVWIARQFGVHLTTKLTQKALDLLSSGASLGTVAAVILGVTLPGWAV) [plantacyclin B21AG]”, the Solubility in butanol was “remarkable solubility”.

Source: paper PMC7452424, “Discovery and characterisation of circular bacteriocin plantacyclin B21AG from Lactiplantibacillus plantarum B21” (Heliyon, 2020)
